Laboratory results from US20050220895A1, “Use of gallium to treat inflammatory arthritis” (priority 2003, published 2005).
“Also recorded” adds a separate entry of the source.

Legend:
[1] = test system: male Lewis rats with streptococcal (PGPS) cell wall induced arthritis; test: Streptococcal cell wall (PGPS)-induced chronic arthritis model; format: in vivo; conditions: 100, 200 and 300 mg/kg daily oral gavage, 35 days
[2] = test system: male Lewis rats with adjuvant-induced acute arthritis; test: Adjuvant-induced acute arthritis model; format: in vivo
Protocol: (§1) Two preclinical animal models were tested for oral gallium efficacy in inflammatory polyarthritis; adjuvant-induced acute arthritis and streptococcal cell wall-induced chronic arthritis, respectively. Male Lewis rats were used in both studies. The models are described in detail in Bendele et al. (1999) Toxicologic Pathology 27(1):134-142 and Bendele (2001) J. Musculoskel. Neuron. Interact. 1(4):377-385.
(§2) Materials and methods: For the adjuvant-induced acute arthritis model, male Lewis rats (7 per group for Gallium Maltolate, 4 per group for normal controls and dexamethasone-treated controls) were injected with 100 μl of Freund's complete adjuvant/lipoidal amine (FCA/LA) subcutaneously at the base of the tail on study day 0 under anesthesia. The rapid onset (within 7 days) of arthritic symptoms in this model includes ankle inflammation, bone resorption, and mild cartilage destruction. Prophylactic treatment was initiated by dosing with control vehicle or Gallium Maltolate (100 or 300 mg/kg) by daily oral gavage, from seven days prior to adjuvant injection until termination. The dexamethasone-treated control animals were administered a daily oral dose of dexamethasone (0.1 mg/kg). Body weights were measured regularly during the course of the study to track the effect of the drugs on the weight loss induced by the developing adjuvant disease, and dose volumes were adjusted accordingly. Prior to the onset of swelling, but after the establishment of systemic disease (about 7 days after adjuvant injection), caliper measurements were made of ankle joints. Ankles were measured every day until 14 days post-adjuvant injection when the rats were anesthetized and euthanized. Serum was harvested one hour after final dosing for gallium quantitation. Hind paws, liver and spleen were weighed, fixed and processed for histopathologic evaluation. Adjuvant arthritic ankles were given scores of 0-5 (0=normal; 5=severe) for inflammation and bone resorption. Splenic changes of inflammation, increased extramedullary hematopoiesis and lymphoid atrophy were scored 0-5 using criteria similar to those used for scoring of inflammation. The primary endpoint is periarticular inflammation and bone resorption as quantitated by ankle caliper measurements and histopathologic evaluation of ankles (scoring of joints). Secondary endpoints include body weight change and the inhibition of splenomegaly and hepatomegaly.

[3] = Serum gallium levels, chronic arthritis study; format: in vivo, rat; conditions: Study PG-PS/TT-1, 100 mg/kg, 1% MC suspension, 35 days, pretreatment 13 days, fasted, 1 hour post-dosing
Protocol: (§3) Materials and methods: Male Lewis rats (N=12/group) with developing streptococcal (PGPS) cell wall induced arthritis were treated with gallium maltolate (100, 200 or 300 mg/kg, po, qd) or Cyclosporin A (CSA, 5-20 mg/kg) prophylactically beginning 1 day after intra-articular injection of PGPS into the ankles (day −14) and continued for 14 days at which time systemic reactivation was induced by intravenous (iv) injection of PGPS (day 0). Treatment was continued for another 14 days and animals were reactivated a second time (day 14). Following an additional week of treatment, rats were terminated for a total of […] of dosing. Rats were weighed on days (−)13, (−)7, 0, 8, 14 and 21, at which time, dose volumes were adjusted. Right ankle caliper measurements were taken on days 0, 2, 4, 6, 8, 10, 12, 14, 16, 18, 20 and 21. […] All rats had terminal blood samples obtained for PK sampling. Scoring of Joints: PGPS arthritic ankles are given scores of 0-5 (normal to severe) for inflammation, pannus, cartilage damage, bone resorption and periosteal bone proliferation according criteria similar to the acute arthritis study. The primary endpoint is periarticular inflammation and bone resorption as quantitated by ankle caliper measurements and histopathologic evaluation of ankles (scoring of joints).
The following data was compiled from the above described model studies. […]

[4] = test system: male Lewis rats with streptococcal (PGPS) cell wall induced arthritis; test: Streptococcal cell wall (PGPS)-induced chronic arthritis model; format: in vivo
Protocol: as §1
This is a multiple reactivated peptidoglycan-polysaccharide (PGPS)-induced arthritis model. The rapid onset (4-5 days) of arthritic symptoms in this model includes ankle inflammation, bone resorption, mild cartilage destruction.
as §3

[5] = Serum gallium levels, acute arthritis studies; format: in vivo, rat; conditions: for Mean Serum Gallium Concentration: 14 days, 1 hour post-dosing
Protocol: as §2, with “Prophylactic treatment was initiated by dosing with control vehicle or Gallium Maltolate (100 or 300 mg/kg) by daily oral gavage, from seven days prior to adjuvant injection until termination.” left out
The following data was compiled from the above described model studies. All sampling was done 1 hour post-dosing.

[6] = 100 or 300 mg/kg daily oral gavage, both doses

Cc1occc(=O)c1[O-].Cc1occc(=O)c1[O-].Cc1occc(=O)c1[O-].[Ga+3] [gallium maltolate, tris(3-hydroxy-2-methyl-4H-pyran-4-onato) gallium]
safety / signs of toxicity [1]: safe and showed no signs of toxicity; also recorded: safe with no signs of toxicity | safety / signs of toxicity ([2]; 100 or 300 mg/kg daily oral gavage in 1% methyl cellulose, 14 days, Lewis rats): safe and showed no signs of toxicity; also recorded: safe with no signs of toxicity | bone resorption scores [2, 6]: significant reduction | liver and spleen hypertrophy (weights) [2, 6]: dose-related decrease; also recorded: marked reduction | effect on body weight (arthritis-induced body weight loss) ([2]; gallium maltolate 100 or 300 mg/kg, dexamethasone 0.1 mg/kg, daily oral): favorable effect | ankle (joint) inflammation, clinical and histological ([2]; gallium maltolate 100 or 300 mg/kg, dexamethasone 0.1 mg/kg, daily oral, vs disease control): reduced ankle inflammation; also recorded: significant reduction; also recorded: Significant dose dependent protection | spleen histopathology: atrophy of the lymphoid tissue ([2]; oral gallium maltolate): prevented atrophy | spleen histopathology: inflammation in the spleen ([2]; oral gallium maltolate): significantly reduced inflammation | Mean Serum Gallium Concentration [3]: 2050 ng/mL | inflammation after the first reactivation of arthritis on day 0 ([4]; 300 mg/kg oral): slight inhibition | ankle swelling, first reactivation ([4]; 300 mg/kg, day 12): reduced the swelling significantly | bone resorption ([4]; 100, 200 or 300 mg/kg po qd): Significant dose dependent anti-inflammatory effects | cartilage (damage) ([4]; 100, 200 or 300 mg/kg po qd): Significant dose dependent anti-inflammatory effects | histological inflammation scores ([4]; 100, 200 or 300 mg/kg po qd): dose-related inhibition | pannus ([4]; 100, 200 or 300 mg/kg po qd): dose-related effect; also recorded: Significant dose dependent anti-inflammatory effects | periosteal proliferation ([4]; 100, 200 or 300 mg/kg po qd): dose-related effect; also recorded: Significant dose dependent anti-inflammatory effects | paw weights after the second reactivation ([4]; 100, 200 or 300 mg/kg po qd, all treated groups): decreased | inhibition of the sum of the scores for inflammation, pannus, cartilage damage and bone damage (joint histopathology) ([4]; 100, 200 or 300 mg/kg po qd, dose responsive): 20-45% | ankle swelling after the second reactivation (flare-up, day 14) ([4]; gallium maltolate 100, 200 or 300 mg/kg po qd, Cyclosporin A 5-20 mg/kg): decreased ankle swelling | peak effect on ankle swelling, time after the flare-up ([4]; second reactivation on day 14): ≤ 6 days | start of decreased ankle swelling after the flare-up ([4]; second reactivation on day 14): ≤ 2 days | serum gallium levels attained ([5]; 100 or 300 mg/kg daily oral gavage): dose-dependent | Mean Serum Gallium Concentration ([5]; Study LATT-1, 100 mg/kg, solution, pretreatment 1 day, not fasted): 652 ng/mL | Mean Serum Gallium Concentration ([5]; Study LATT-2, 100 mg/kg, 1% MC suspension, pretreatment 1 day, fasted): 1350 ng/mL | Mean Serum Gallium Concentration ([5]; Study LATT-2, 300 mg/kg, 1% MC suspension, pretreatment 1 day, fasted): 3470 ng/mL | Mean Serum Gallium Concentration ([5]; Study LATT-2, 300 mg/kg, 1% MC suspension, pretreatment 7 days, fasted): 2960 ng/mL
